Test results taken from patent US5504104A, “Tricyclic pyrone derivatives as protease inhibitors and antiviral agents” (Warner-Lambert Company, priority 1993, dated 1996).

Target: T1, HIV-1 Protease (Human immunodeficiency virus type 1 group M subtype B, UniProt P04585)
T1 construct: HIV-1 Protease: The enzyme is obtained from Bachem Bioscience Inc; purchased Bachem Bioscience Inc
Experiment: HIV Protease Inhibition Assay (HPLC of undecapeptide substrate hydrolysis)
Assay type: biochemical
Conditions: 40 μM substrate, 37° C., 5 minutes, pH 4.7, 2% DMSO; read-out: 50% INHIBITION CONCENTRATION
Method: The biological activity of the subject compounds was determined in an HIV Protease Inhibition Assay.
DTT Buffer: 1.0 mM dithiothreitol (DTT) was prepared fresh daily in 0.1% polyethylene glycol (mw 8000) 80 mM NaOAc, 160 mM NaCl, 1.0 mM EDTA, and brought to pH 4.7 with HCl.
HIV-1 Protease: The enzyme is obtained from Bachem Bioscience Inc. The undiluted enzyme is thawed from -80° C. and diluted 50-fold with DTT buffer. The solution is always kept at 0° C. on ice water and used in the experiment within 20 minutes after thawing.
Ensyme Substrates: Substrate III from Bachem Bioscience Inc. is the undecapeptide H-His-Lys-Ala-Arg-Val-Leu-p-Nitrophenylalanine-Glu-Ala-Norleucine-Ser-NH2 (>97% purity). A 200 μM stock solution in DTT buffer is prepared and stored on ice. Substrate solution is prepared fresh daily.
Test Compound: 10 mM inhibitor (I) in dimethyl sulfoxide (DMSO) is diluted to 200 μM with DTT buffer. From the 200 μM stock solution is made a 10 μM stock solution with 2% DMSO in DTT buffer. The two inhibitor solutions are used to make final I!=100, 50, 20, 10, 5, 2, 1, 0.5 and 0 μM with 2% DMSO in DTT buffer in each reaction well (total inhibitor volume of 50 μl).
To each reaction well is added 20 μl of substrate (final concentration of 40 μM), 50 μl of inhibitor (at a concentration such that final dilution will produce the test concentration) and 20 μl of DTT buffer. The reaction plate (96 wells) is incubated at 37° C. for at least 5 minutes.
10 μl of the diluted protease is added to the reaction well while the reaction plate is shaking. Once shaken for 10 seconds, the plate is returned to the heating block at 37° C. (final reaction volume 100 μl.)
The reaction is incubated for 5 minutes at 37° C. The reaction is stopped by placing the reaction plate on the shaker and adding 20 μl of 10% trifluoroacetic acid (TFA) and shaking for 10 seconds. The amount of proteolysis is then determined by separation of noncleaved substrate and two cleaved products with reverse-phase HPLC, while measuring absorbance at 220 nm to determine the relative peak areas of the three components. The relative peak areas are used to calculate % conversion to product as a function of inhibitor concentration. The data is plotted as % Control (the ratio of % conversion is the presence and absence of inhibitor×100) versus inhibitor concentration and fit with the equation Y=100/1+(X/IC50)^A, where IC50 is the inhibitor concentration at 50% inhibition and A is the slope of the inhibition curve.
In the case of O=c1oc2c(c(O)c1SCc1ccccc1)COc1ccccc1-2 [Example 14, 4-Hydroxy-3-(phenylmethyl)thio!-2H,5H-pyrano 3,2-c! 1!bensopyran-2-one], the IC50 is reported as 4 µM. Work on O=c1oc2c(c(O)c1SCc1ccccc1)Cc1ccc(O)cc1-2 [Example 3, 4,8-Dihydroxy-3-(phenylmethyl)thio!-indeno 1,2-b!pyran-2(5H)-one] yielded an IC50 of 0.7 µM. In the case of O=c1oc2c(c(O)c1SCc1ccccc1)CCc1cc(O)ccc1-2 [Example 9, 5,6-Dihydro-4,8-dihydroxy-3-(phenylmethyl)thio! -2H-naphtho 1,2-b !pyran-2-one], the IC50 is reported as 2.5 µM. For O=c1oc2c(c(O)c1SCc1ccccc1)Cc1ccc(OCc3ccccc3)cc1-2 [Example 11, 4-Hydroxy-8-(phenylmethoxy)-3-(phenylmethyl)thio!indeno 1,2-b!pyran-2(5H)-one], the IC50 was 2.2 µM. In the case of O=c1oc2c(c(O)c1SCc1ccccc1)Cc1ccccc1-2 [Example 1, 4-Hydroxy-3-(phenylmethyl)thio!-indeno 1,2-b!pyran-2(5H)-one], the IC50 is reported as 1.3 µM. Work on O=C(O)COc1ccc2c(c1)-c1oc(=O)c(SCc3ccccc3)c(O)c1C2 [Example 29, 2,5-Dihydro-4-hydroxy-2-oxo-3-(phenylmethyl)thio!indeno 1,2-b!pyran-8 !oxy!-acetic acid] yielded an IC50 of 1.4 µM. For O=c1oc2c(c(O)c1SCc1ccccc1)CSc1ccccc1-2 [Example 25, 4-Hydroxy-3-(phenylmethyl)thio!-2H,5H-1!bensothiopyrano 4,3-b!pyran-2-one], the IC50 was 1.3 µM. O=c1oc2c(c(O)c1SCCc1ccccc1)Cc1ccccc1-2 [Example 16, 4-Hydroxy-3-(2-phenylethyl)thio!indeno 1,2-b!pyran-2(5H)-one] showed an IC50 of 3.5 µM. With O=c1oc2c(c(O)c1SCc1ccccc1)CCc1ccccc1-2 [Example 4, 5,6-Dihydro-4-hydroxy-3-(phenylmethyl)thio!-2H-naphtho 1,2-b!pyran-2-one] the IC50 was 1.4 µM. Cc1cc(C)c2c(c1)-c1oc(=O)c(SCc3ccccc3)c(O)c1CC2 [Example 6, 5,6-Dihydro-4-hydroxy-7,9-dimethyl-3-(phenylmethyl)thio!-2H-naphtho 1,2-b! pyran-2-one] showed an IC50 of 2 µM.

System: HIV
Experiment: not given
Conditions: cell-free and cell-mediated; literature; cited from earlier work
For CC(=O)CC(c1ccccc1)c1c(O)c2ccccc2oc1=O (stereo not drawn) [Warfarin, 3-(α-acetonylbenzyl)-4-hydroxycoumarin], the “inhibiting HIV infection” value is given as “inhibiting cell-free and cell-mediated HIV infection”.
